Data published in PubChem BioAssay (NCI).
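How tested: cells in 96-well plates exposed to compound for 48 hours at five concentrations. GI50 = concentration required for 50% inhibition of growth. TGI denotes the concentration required for complete inhibition of growth.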

Columns and labels:
Assay in all cases: DTP human tumour cell line panel, 48 h
[1] = test system: BT-549 breast
[2] = test system: MOLT-4 leukemia
[3] = test system: A549 NSCLC
[4] = test system: MDA-MB-435
[5] = test system: UO-31 renal
[6] = test system: SK-OV-3 ovarian
[7] = test system: ACHN renal
[8] = test system: MALME-3M melanoma
[9] = test system: A498 renal
[10] = test system: DU-145 prostate
[11] = test system: K-562 leukemia
[12] = test system: T-47D breast
[13] = test system: OVCAR-8 ovarian
[14] = test system: SN12C renal
[15] = test system: TK-10 renal
[16] = test system: SF-539 CNS
[17] = test system: NCI-H226 lung
[18] = test system: SF-295 CNS
[19] = test system: SF-268 CNS
[20] = test system: OVCAR-5 ovarian
[21] = test system: SNB-19 CNS
[22] = test system: SW-620 colon
[23] = test system: SK-MEL-5 melanoma
[24] = test system: NCI-H522 lung
[25] = test system: U251 CNS
[26] = test system: KM12 colon
[27] = test system: SK-MEL-28 melanoma
[28] = test system: HCT-15 colon
[29] = test system: IGROV1 ovarian
[30] = test system: HOP-92 NSCLC
[31] = test system: SR leukemia
[32] = test system: HT29 colon
[33] = test system: NCI-H460 lung
[34] = test system: UACC-62 melanoma
[35] = test system: OVCAR-4 ovarian
[36] = test system: RXF 393 renal
[37] = test system: HL-60(TB) leukemia
[38] = test system: M14 melanoma
[39] = test system: RPMI-8226 leukemia
[40] = test system: EKVX NSCLC
[41] = test system: NCI-H23 lung
[42] = test system: PC-3 prostate
[43] = test system: COLO 205 colon
[44] = test system: UACC-257 melanoma
[45] = test system: HOP-62 NSCLC
[46] = test system: MCF7 breast
[47] = test system: SNB-75 CNS
[48] = test system: SK-MEL-2 melanoma
[49] = test system: HCC-2998 colon
[50] = test system: HCT-116 colon
[51] = test system: NCI/ADR-RES ovarian
[52] = test system: CCRF-CEM leukemia
[53] = test system: 786-0 renal
[54] = test system: HS 578T breast

SMILES: CCOC(=O)c1c(NC(=O)c2ccccc2C(F)(F)F)sc2c1CCC(=O)C2
- GI50 [1]: 3.35 µM
- TGI [1]: > 100 µM
- GI50 [2]: 3.54 µM
- TGI [2]: > 100 µM
- GI50 [3]: 3.51 µM
- TGI [3]: > 100 µM
- GI50 [4]: 3.18 µM
- TGI [4]: 11.6 µM
- GI50 [5]: 2.3 µM
- TGI [5]: 7.57 µM
- GI50 [6]: 3.18 µM
- TGI [6]: > 100 µM
- GI50 [7]: 3.33 µM
- TGI [7]: 10.4 µM
- GI50 [8]: 2.78 µM
- TGI [8]: 8 µM
- GI50 [9]: 11.5 µM
- TGI [9]: 49.2 µM
- GI50 [10]: 4.44 µM
- TGI [10]: > 100 µM
- GI50 [11]: 1.98 µM
- TGI [11]: > 100 µM
- GI50 [12]: 3.12 µM
- TGI [12]: > 100 µM
- GI50 [13]: 3.4 µM
- TGI [13]: > 100 µM
- GI50 [14]: 3.06 µM
- TGI [14]: > 100 µM
- GI50 [15]: 5.36 µM
- TGI [15]: > 100 µM
- GI50 [16]: 1.87 µM
- TGI [16]: 3.72 µM
- GI50 [17]: 2.94 µM
- TGI [17]: 9.47 µM
- GI50 [18]: 2.58 µM
- TGI [18]: 7.64 µM
- GI50 [19]: 3.96 µM
- TGI [19]: > 100 µM
- GI50 [20]: 2.52 µM
- TGI [20]: 7.1 µM
- GI50 [21]: 3.85 µM
- TGI [21]: 41.2 µM
- GI50 [22]: 2.64 µM
- TGI [22]: 10 µM
- GI50 [23]: 1.88 µM
- TGI [23]: 3.64 µM
- GI50 [24]: 1.92 µM
- TGI [24]: 4.82 µM
- GI50 [25]: 0.792 µM
- TGI [25]: 12 µM
- GI50 [26]: 2.69 µM
- TGI [26]: 7.21 µM
- GI50 [27]: 4.51 µM
- TGI [27]: 65 µM
- GI50 [28]: 2.72 µM
- TGI [28]: 10.3 µM
- GI50 [29]: 3.09 µM
- TGI [29]: 10.3 µM
- GI50 [30]: 1.82 µM
- TGI [30]: 5.52 µM
- GI50 [31]: 2.33 µM
- TGI [31]: > 100 µM
- GI50 [32]: 3.1 µM
- TGI [32]: 8.75 µM
- GI50 [33]: 3.48 µM
- TGI [33]: 12.1 µM
- GI50 [34]: 2.83 µM
- TGI [34]: 11.5 µM
- GI50 [35]: 3.79 µM
- TGI [35]: > 100 µM
- GI50 [36]: 2.39 µM
- TGI [36]: 8.09 µM
- GI50 [37]: 2.4 µM
- TGI [37]: 6.48 µM
- GI50 [38]: 3.94 µM
- TGI [38]: > 100 µM
- GI50 [39]: 1.95 µM
- TGI [39]: 5.46 µM
- GI50 [40]: 3.41 µM
- TGI [40]: 23.6 µM
- GI50 [41]: 2.93 µM
- TGI [41]: 9.25 µM
- GI50 [42]: 2.45 µM
- TGI [42]: 7.68 µM
- GI50 [43]: 2.12 µM
- TGI [43]: 4.12 µM
- GI50 [44]: 3.49 µM
- TGI [44]: 37.8 µM
- GI50 [45]: 3.71 µM
- TGI [45]: > 100 µM
- GI50 [46]: 2.79 µM
- TGI [46]: 30.2 µM
- GI50 [47]: 1.39 µM
- TGI [47]: 7.14 µM
- GI50 [48]: 2.75 µM
- TGI [48]: 8.82 µM
- GI50 [49]: 3.16 µM
- TGI [49]: 10.5 µM
- GI50 [50]: 3.29 µM
- TGI [50]: 12.6 µM
- GI50 [51]: 3.09 µM
- TGI [51]: 11.2 µM
- GI50 [52]: 3.24 µM
- TGI [52]: > 100 µM
- GI50 [53]: 4.63 µM
- TGI [53]: > 100 µM
- GI50 [54]: 4.66 µM
- TGI [54]: > 100 µM
